From article PMC6100347, “Simultaneous Determination of Decursin, Decursinol Angelate, Nodakenin, and Decursinol of Angelica gigas Nakai in Human Plasma by UHPLC-MS/MS: Application to Pharmacokinetic Study” (Molecules : A Journal of Synthetic Chemistry and Natural …, 2018)

How the values were obtained:
[1] = Stability in human plasma under various storage conditions (QC samples); assay type: in vitro ADME; conditions: in % (unit assumed); for Stability, Processed Sample (10 °C in Auto Sampler for 24 h): extracted human plasma sample; for Stability, Processed Sample (10 °C in Auto Sampler for 24 h) / Stability, Long-Term (−80 °C for 30 Days) / Stability, Bench-Top (8 h at Room Temperature) / Stability, Freeze-Thaw (3 Cycles): mean ± SD, n = 5; for Stability, Long-Term (−80 °C for 30 Days) / Stability, Bench-Top (8 h at Room Temperature) / Stability, Freeze-Thaw (3 Cycles) / Stability mean values (range over all storage conditions and concentrations): human plasma; for Stability, Bench-Top (8 h at Room Temperature): measured vs initial value; for Stability, Freeze-Thaw (3 Cycles): −80 °C and room temperature; for Stability mean values (range over all storage conditions and concentrations): bench-top, processed sample, freeze-thaw, long-term, low and high QC
Procedure: Bench-top stability test was conducted by using unextracted QC samples at room temperature for 8 h. Processed sample stability test was carried out by analyzing extracted samples in an auto sampler at 10 °C for 24 h. Freeze–thaw stability was estimated after three frozen and thawing cycles at −80 °C and room temperature on consecutive days. Long-term stability was examined after storing samples at −80 °C for a month. Stability of each coumarin was estimated by comparing the initial value with measured value after the examination (n = 5). The sample was considered stable if each value was less than 15% and all value of data expressed as mean ± standard deviation (mean ± SD).

[2] = Published PK study of AGN-based dietary supplement Cogni Q after oral administration in humans; assay type: in vivo, human; conditions: Cogni Q (ref 23) vs 4.6 g AGN root extract powder
Procedure: PK study of the four coumarins has been reported in several studies. However, presented PK parameters are inconsistent with each other. Of these studies, only one paper has reported a PK study for D, DA, and DOH after oral administration in humans (male, n = 10) for AGN-based dietary supplement Cogni Q (119 mg D and 77 mg DA from four vegicaps). […] Such discrepancies in PK parameters between that study and the current study might be due to differences in dosage and the influence of excipients from different formulations. PKs of nodakenin in humans have not been reported previously.

[3] = Pharmacokinetic study after oral administration of AGN root extract powder in healthy Korean subjects; assay type: in vivo, human; conditions: mean ± SE, n = 10; for CL/F / Vd/F: humans; for CL/F / Vd/F / AUC(0-inf) / Tmax / half-life: single usual oral dose of 4.6 g AGN root extract powder; for CL/F: dose of each coumarin / AUC0–∞; for Vd/F / Cmax / AUC(0-inf) / Tmax / half-life: male; for Vd/F: human, plasma; for Cmax / AUC(0-inf) / Tmax / half-life: human plasma; for Cmax: single usual oral dose of 4.6 g AGN root extract powder (0.055 mg D, 0.184 mg DA, 1.095 mg nodakenin)
Procedure: Ten healthy male subjects (Korean, 23–25 years, weight of 56.7–86.2 kg, and height of 159.8–188.0 cm) were included for this clinical trial. These subjects were in good health condition prior to this study based on a physical examination, medical history, and laboratory tests. Clinical trial protocol was approved by the Institutional Review Board of Wonkwang Oriental Medicine Hospital, Gwangju, Korea (https://cris.nih.go.kr, no. KCT0001118). This clinical trial was carried out in accordance with the revised Declaration of Helsinki for biomedical research involving human subjects and Guideline for Good Clinical Practice.
All subjects fasted for at least 10 h before drug administration. They continued the fasting for another 4 h. These subjects abstained from consuming alcohol or xanthine-containing foods, or beverages during the study. A usual oral dose of AGN root extract powder was given to each subject with 240 mL of spring water. The usual dose approved by the MFDS was of 4.6 g. It contained 0.055 mg of D, 0.184 mg of DA, and 1.095 mg of nodakenin. Blood samples were taken from the forearm vein before and at 0.25, 0.5, 0.75, 1, 2, 3, 4, 6, 8, 12, and 24 h after oral administration. Samples were transferred to Vacutainer® (10 mL, Becton Dickinson and Company, NJ, USA) tubes and immediately centrifuged (10,000× g, 10 min, 4 °C) to obtain plasma samples. Obtained plasma samples were transferred to polyethylene tubes and stored at −80 °C until analysis.
Plasma concentration–time data were analyzed with non-compartmental method using WinNonlin® software (version 7.0, Pharsight®, Certara™ Company, Princeton, NJ, USA) to obtain pharmacokinetic parameters. The area under the plasma concentration–time curve from zero to time infinity (AUC0–∞) was calculated as AUC0–t + Ct/k, where Ct is was the last measurable concentration. AUC0–t was calculated by linear trapezoidal rule from zero to the last measurable time point. Oral clearance (CL/F) was calculated as dose of each coumarin divided by AUC0–∞, where F was oral bioavailability. The t1/2 was calculated as 0.693/k, where k was terminal rate constant. All results are expressed as mean value ± standard error (mean ± SE, n = 10).

Structure (SMILES) | Stability, Processed Sample (10 °C in Auto Sampler for 24 h) ([1]; nominal conc. 0.15 ng/mL) | Stability, Processed Sample (10 °C in Auto Sampler for 24 h) ([1]; nominal conc. 40 ng/mL) | Stability, Long-Term (−80 °C for 30 Days) ([1]; nominal conc. 0.15 ng/mL) | Stability, Bench-Top (8 h at Room Temperature) ([1]; nominal conc. 0.15 ng/mL) | Stability, Freeze-Thaw (3 Cycles) ([1]; nominal conc. 0.15 ng/mL) | Stability, Long-Term (−80 °C for 30 Days) ([1]; nominal conc. 40 ng/mL) | Stability, Bench-Top (8 h at Room Temperature) ([1]; nominal conc. 40 ng/mL) | Stability, Freeze-Thaw (3 Cycles) ([1]; nominal conc. 40 ng/mL) | Stability mean values (range over all storage conditions and concentrations) [1] | t1/2 of published study relative to t1/2 of this study (times longer) [2] | CL/F [3] [L/h] | Vd/F [3] [L] | Cmax [3] [ng/mL] | AUC(0-inf) [3] [ng·h/mL] | Tmax [3] [min] | half-life [3] [min]
CC(C)=CC(=O)O[C@H]1Cc2cc3ccc(=O)oc3cc2OC1(C)C [D, decursin] | 100.34 ± 9.38 | 108.94 ± 11.50 | 105.00 ± 9.02 | 101.91 ± 3.91 | 96.54 ± 10.95 | 102.26 ± 10.17 | 108.71 ± 14.16 | 102.80 ± 12.88 | 96.54–108.94 | about 5.84 times | 3.11 ± 0.42 | 11.9 ± 1.5 | 11.9 ± 1.43 | 22.3 ± 5.04 | 26.4 ± 3 | 182 ± 31.2
C/C=C(/C)C(=O)O[C@H]1Cc2cc3ccc(=O)oc3cc2OC1(C)C [DA, decursinol angelate] | 111.85 ± 12.49 | 103.88 ± 3.51 | 106.20 ± 9.09 | 108.58 ± 10.18 | 103.55 ± 8.34 | 99.35 ± 4.17 | 107.87 ± 4.07 | 100.75 ± 4.12 | 99.35–111.85 | ~3.7 times | 12.00 ± 1.97 | 60 ± 7.3 | 7.72 ± 0.84 | 19.6 ± 3.71 | 18.6 ± 2.4 | 242 ± 38.4
CC1(C)Oc2cc3oc(=O)ccc3cc2C[C@@H]1O [DOH, decursinol] | 102.43 ± 5.27 | 104.77 ± 2.48 | 87.35 ± 9.60 | 89.75 ± 11.39 | 92.06 ± 2.28 | 106.93 ± 11.89 | 101.81 ± 7.72 | 104.29 ± 9.30 | 87.35–106.93 | ~2.5 times |  |  | 0.92 ± 0.16 | 2.43 ± 0.45 | 38.4 ± 3.6 | 157 ± 30
CC(C)(O[C@@H]1O[C@H](CO)[C@@H](O)[C@H](O)[C@H]1O)[C@H]1Cc2cc3ccc(=O)oc3cc2O1 [Nodakenin, nodakenin] | 107.70 ± 9.77 | 103.17 ± 10.19 | 111.62 ± 8.13 | 101.43 ± 7.53 | 103.49 ± 8.40 | 101.90 ± 9.83 | 107.91 ± 6.81 | 104.79 ± 12.76 | 101.43–111.62 |  | 622.29 ± 159.24 | 2800 ± 420 | 0.95 ± 0.17 | 3.11 ± 0.8 | 40.2 ± 2.4 | 377 ± 148
